Laboratory results published in patent US20110046385A1, “Polymorphs Of Prostaglandin Agonists And Methods For Making The Same” (priority 2007, published 2011).

Experiments:
[1] = tested on: tibia defect site; settings: beagles, 0.2 mg/kg injected into tibia defect site twice a day for 10 days; cited from earlier work
[2] = tested on: alveolar bone in the mandible; settings: dogs, local infusion for 3 weeks, 500 to 2000 μg per week; cited from earlier work
[3] = tested on: rib fracture site; settings: adult beagles, 0.2 mg injected into rib fracture sites twice a day for 10 days; cited from earlier work
[4] = tested on: trabecular bone in the tibial metaphysis; settings: daily intraosseous injections into left tibia metaphysis for 14 days; cited from earlier work
[5] = tested on: Bone Morphogenetic Protein 7 (BMP-7) expression in wild type 293S cells; experiment: Kidney regeneration assay: BMP-7 expression (Northern blot) in wild type 293S cells; type: cell-based, human; settings: parental 293S cell line, 10^-6M, RNA at 8, 16 and 24 hours
Description: (§1) Methods: 293S and EP2 293S cells are grown in Dulbecco's Modified Eagle medium (DMEM, Gibco, BRL; Gaithersburg, Md.). […] Cells are harvested and RNA is extracted at 8, 16 and 24 hours. Northern blot analysis of total RNA ([…]) is carried out by probing the blots with ^32P-labeled BMP-7 probe. The blots are normalized for RNA loading by hybridization with ^32P-labeled 18s ribosomal RNA probe. […] Given the known role of BMP-7 in kidney regeneration and the ability of an prostaglandin agonist to induce BMP-7 expression in 293S kidney cells in a time and receptor specific manner indicates a role for prostaglandin agonist in kidney regeneration.

[6] = tested on: Bone Morphogenetic Protein 7 (BMP-7) expression in 293S cells transfected with EP2; experiment: Kidney regeneration assay: BMP-7 expression (Northern blot) in EP2 293S cells; type: cell-based, human; settings: 10^-6M, RNA at 8, 16 and 24 hours
Description: as §1

Row | Structure (SMILES) | periosteal and cortical endosteal bone formation [1] | alveolar bone formation [2] | bone matrix formation at fracture site [3] | trabecular bone in the metaphysis [4] | induction of BMP-7 expression [5] | induction of BMP-7 expression [6]
1 | CCCCC[C@H](O)/C=C/[C@H]1[C@H](O)CC(=O)[C@@H]1CCCCCCC(=O)O [PGE1, prostaglandin E1] | more periosteal and cortical endosteal bone formation, with an increased amount of osteoid present | dramatic, localized formation of alveolar bone | induced bone matrix formation on the periosteal envelope adjacent to the fracture site and its contralateral matching site |  |  | 
2 | CCCCC[C@H](O)/C=C/[C@H]1[C@H](O)CC(=O)[C@@H]1C/C=C\CCCC(=O)O [PGE2, prostaglandin E2] |  |  |  | significant increase of trabecular bone in the metaphysis | generally not observed | induce the expression of BMP-7 in the EP2 293S cells in a time dependent manner
